Reference: patent US20240158446A1, “CYCLIC COMPOUND HAVING SELECTIVE INHIBITORY ACTION ON KRAS OVER HRAS AND NRAS” (CHUGAI SEIYAKU KABUSHIKI KAISHA, priority 2021, published 2024)

Tests used:
[1] = target: GDP-bound KRAS wild-type protein (Homo sapiens, UniProt P01116); assay: Binding to KRAS by surface plasmon resonance (SPR), Single Cycle Kinetics; conditions: SPR, Single Cycle Kinetics, GDP-bound KRAS wild-type protein; read-out: KRAS KD
[2] = target: GDP-bound NRAS wild-type protein (Homo sapiens, UniProt P01111); assay: Binding to NRAS by surface plasmon resonance (SPR), Single Cycle Kinetics; conditions: SPR, GDP-bound NRAS wild-type protein vs GDP-bound KRAS wild-type protein
[3] = target: GDP-bound HRAS wild-type protein (Homo sapiens, UniProt P01112); assay: Binding to HRAS by surface plasmon resonance (SPR), Single Cycle Kinetics; conditions: SPR, GDP-bound HRAS wild-type protein vs GDP-bound KRAS wild-type protein
Sequence of GDP-bound HRAS wild-type protein (P01112 whole entry): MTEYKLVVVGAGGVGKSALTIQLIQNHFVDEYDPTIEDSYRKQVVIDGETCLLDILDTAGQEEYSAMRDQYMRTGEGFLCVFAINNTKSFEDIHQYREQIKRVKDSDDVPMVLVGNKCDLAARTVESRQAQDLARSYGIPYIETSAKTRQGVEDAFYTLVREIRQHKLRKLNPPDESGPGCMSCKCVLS

Sequence of GDP-bound NRAS wild-type protein (P01111 whole entry): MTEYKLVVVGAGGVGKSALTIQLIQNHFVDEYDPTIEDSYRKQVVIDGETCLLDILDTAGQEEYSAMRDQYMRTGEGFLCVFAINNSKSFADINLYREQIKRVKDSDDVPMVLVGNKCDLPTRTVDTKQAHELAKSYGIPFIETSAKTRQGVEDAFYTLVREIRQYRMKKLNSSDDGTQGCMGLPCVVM
Sequence of GDP-bound KRAS wild-type protein (P01116 whole entry): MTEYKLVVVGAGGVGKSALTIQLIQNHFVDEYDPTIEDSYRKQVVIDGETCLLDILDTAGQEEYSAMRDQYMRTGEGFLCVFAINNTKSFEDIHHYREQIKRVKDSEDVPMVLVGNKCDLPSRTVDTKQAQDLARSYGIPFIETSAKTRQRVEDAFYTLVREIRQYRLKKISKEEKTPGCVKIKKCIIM

Compound	Kd [1] [nM]	NRAS/KRAS (ratio of KD value for NRAS to KD value for KRAS) [2]	HRAS/KRAS (ratio of KD value for HRAS to KD value for KRAS) [3]
CCO[C@@H]1C[C@H]2C(=O)NC3(CCC3)C(=O)N(C)[C@@H](C3CCCC3)C(=O)N(C)[C@H](C(=O)N3CCOCC3)CC(=O)N(C)[C@@H](COC)C(=O)N[C@@H]([C@@H](C)CC)C(=O)N(C)CC(=O)N(C)[C@H]3CCCCCN(C3=O)[C@@H](Cc3ccc(C(F)(F)F)cc3)C(=O)N(C)CC(=O)N[C@@H](CCc3ccc(C(F)(F)F)c(F)c3)C(=O)N2C1 [PP0848]	0.57	B (a compound having 3 or more and less than 10 is denoted as B)	B (a compound having 3 or more and less than 10 is denoted as B)
CCO[C@@H]1C[C@H]2C(=O)NC3(CCC3)C(=O)N(C)[C@@H](C3CCCC3)C(=O)N(C)[C@H](C(=O)N3CCOCC3)CC(=O)N(C)[C@@H](COC)C(=O)N[C@@H]([C@@H](C)CC)C(=O)N(C)CC(=O)N(C)[C@H]3CCCCCN(C3=O)[C@@H](Cc3ccc(C(F)(F)F)cc3)C(=O)N(C)CC(=O)N[C@@H](CCc3ccc(C(F)(F)F)c(Cl)c3)C(=O)N2C1 [PP0849]	0.46	B (a compound having 3 or more and less than 10 is denoted as B)	B (a compound having 3 or more and less than 10 is denoted as B)
CCO[C@@H]1C[C@H]2C(=O)NC3(CCC3)C(=O)N(C)[C@@H](C3CCCC3)C(=O)N(C)[C@H](C(=O)N3CCOCC3)CC(=O)N(C)[C@@H](COC)C(=O)N[C@@H]([C@@H](C)CC)C(=O)N(C)CC(=O)N(C)[C@H]3CCCCCN(C3=O)[C@@H](Cc3ccc(C(F)(F)F)cc3)C(=O)N(C)CC(=O)N[C@@H](CCc3ccc(C)cc3)C(=O)N2C1 [PP0850]	12	B (a compound having 3 or more and less than 10 is denoted as B)	B (a compound having 3 or more and less than 10 is denoted as B)
CCO[C@@H]1C[C@H]2C(=O)NC3(CCC3)C(=O)N(C)[C@@H](C3CCCC3)C(=O)N(C)[C@H](C(=O)N3CCOCC3)CC(=O)N(C)[C@@H](CC(F)F)C(=O)N[C@@H]([C@@H](C)CC)C(=O)N(C)CC(=O)N(C)[C@H]3CCCCCN(C3=O)[C@@H](Cc3ccc(C(F)(F)F)cc3)C(=O)N(C)CC(=O)N[C@@H](CCc3cc(F)c(C(F)(F)F)c(F)c3)C(=O)N2C1 [PP0854]	0.38	B (a compound having 3 or more and less than 10 is denoted as B)	B (a compound having 3 or more and less than 10 is denoted as B)
CCO[C@@H]1C[C@H]2C(=O)NC3(CCC3)C(=O)N(C)[C@@H](C3CCCC3)C(=O)N(C)[C@H](C(=O)N3CCOCC3)CC(=O)N(C)[C@@H](Cc3cccc(Cl)c3)C(=O)N[C@@H]([C@@H](C)CC)C(=O)N(C)CC(=O)N(C)[C@H]3CCCCCN(C3=O)[C@@H](Cc3ccc(C(F)(F)F)cc3)C(=O)N(C)CC(=O)N[C@@H](CCc3cc(F)c(C(F)(F)F)c(F)c3)C(=O)N2C1 [PP0857]	1.4	B (a compound having 3 or more and less than 10 is denoted as B)	B (a compound having 3 or more and less than 10 is denoted as B)
CCO[C@@H]1C[C@H]2C(=O)NC3(CCC3)C(=O)N(C)[C@@H](C3CCCC3)C(=O)N(C)[C@H](C(=O)N3CCOCC3)CC(=O)N(C)[C@@H](COC)C(=O)N[C@@H]([C@@H](C)CC)C(=O)NCC(=O)N(C)[C@H]3CCCCCN(C3=O)[C@@H](Cc3ccc(C(F)(F)F)cc3)C(=O)N(C)CC(=O)N[C@@H](CCc3cc(F)c(C(F)(F)F)c(F)c3)C(=O)N2C1 [PP0858]	0.66	B (a compound having 3 or more and less than 10 is denoted as B)	B (a compound having 3 or more and less than 10 is denoted as B)
CCO[C@@H]1C[C@H]2C(=O)NC3(CCC3)C(=O)N(C)[C@@H](C3CCCC3)C(=O)N(C)[C@H](C(=O)N(C)C)CC(=O)N(C)[C@@H](COC)C(=O)N[C@@H]([C@@H](C)CC)C(=O)NCC(=O)N(C)[C@H]3CCCCCN(C3=O)[C@@H](Cc3ccc(C(F)(F)F)cc3)C(=O)N(C)CC(=O)N[C@@H](CCc3cc(F)c(C(F)(F)F)c(F)c3)C(=O)N2C1 [PP0859]	0.31	B (a compound having 3 or more and less than 10 is denoted as B)	B (a compound having 3 or more and less than 10 is denoted as B)
CC[C@H](C)[C@@H]1NC(=O)[C@H](COC)N(C)C(=O)C[C@@H](C(=O)N2CCOCC2)N(C)C(=O)[C@H](C2CCCC2)N(C)C(=O)C2(CCC2)NC(=O)[C@@H]2CC(F)(F)CN2C(=O)[C@H](CCc2cc(F)c(C(F)(F)F)c(F)c2)NC(=O)CN(C)C(=O)[C@H](Cc2ccc(C(F)(F)F)cc2)N2CCCCC[C@@H](C2=O)N(C)C(=O)CNC1=O [PP0861]	0.66	B (a compound having 3 or more and less than 10 is denoted as B)	B (a compound having 3 or more and less than 10 is denoted as B)
CCO[C@@H]1C[C@H]2C(=O)NC3(CCC3)C(=O)N(C)[C@@H](C3CCCC3)C(=O)N(C)[C@H](C(=O)N3CCOCC3)CC(=O)N(C)[C@@H](COC)C(=O)N[C@@H]([C@@H](C)CC)C(=O)N3CC[C@H]3C(=O)N(C)[C@H]3CCCCCN(C3=O)[C@@H](Cc3ccc(C(F)(F)F)cc3)C(=O)N(C)CC(=O)N[C@@H](CCc3cc(F)c(C(F)(F)F)c(F)c3)C(=O)N2C1 [PP0863]	0.6	B (a compound having 3 or more and less than 10 is denoted as B)	B (a compound having 3 or more and less than 10 is denoted as B)
CCO[C@@H]1C[C@H]2C(=O)NC3(CCC3)C(=O)N(C)[C@@H](C3CCCC3)C(=O)N(C)[C@H](C(=O)N(C)C)CC(=O)N(C)[C@@H](COC)C(=O)N[C@@H]([C@@H](C)CC)C(=O)N3CC[C@H]3C(=O)N(C)[C@H]3CCCCCN(C3=O)[C@@H](Cc3ccc(C(F)(F)F)cc3)C(=O)N(C)CC(=O)N[C@@H](CCc3cc(F)c(C(F)(F)F)c(F)c3)C(=O)N2C1 [PP0864]	0.49	B (a compound having 3 or more and less than 10 is denoted as B)	B (a compound having 3 or more and less than 10 is denoted as B)
CC[C@H](C)[C@@H]1NC(=O)[C@H](COC)N(C)C(=O)C[C@@H](C(=O)N2CCOCC2)N(C)C(=O)[C@H](C2CCCC2)N(C)C(=O)C2(CCC2)NC(=O)[C@@H]2CCCN2C(=O)[C@H](CCc2cc(F)c(C(F)(F)F)c(F)c2)NC(=O)CN(C)C(=O)[C@H](Cc2ccc(C(F)(F)F)cc2)N2CCCCC[C@@H](C2=O)N(C)C(=O)[C@@H]2CCN2C1=O [PP0865]	1.1	B (a compound having 3 or more and less than 10 is denoted as B)	B (a compound having 3 or more and less than 10 is denoted as B)
CC[C@H](C)[C@@H]1NC(=O)[C@H](COC)N(C)C(=O)C[C@@H](C(=O)N2CCOCC2)N(C)C(=O)[C@H](C2CCCC2)N(C)C(=O)C2(CCC2)NC(=O)[C@@H]2CC(F)(F)CN2C(=O)[C@H](CCc2cc(F)c(C(F)(F)F)c(F)c2)NC(=O)CN(C)C(=O)[C@H](Cc2ccc(C(F)(F)F)cc2)N2CCCCC[C@@H](C2=O)N(C)C(=O)[C@@H]2CCN2C1=O [PP0866]	0.53	B (a compound having 3 or more and less than 10 is denoted as B)	B (a compound having 3 or more and less than 10 is denoted as B)
CC[C@H](C)[C@@H]1NC(=O)[C@H](CC(C)C)N(C)C(=O)C[C@@H](C(=O)N2CCOCC2)N(C)C(=O)[C@H](C2CCCC2)N(C)C(=O)C2(CCC2)NC(=O)[C@@H]2C[C@@H](O)CN2C(=O)[C@H](CCc2cc(F)c(C(F)(F)F)c(F)c2)NC(=O)CN(C)C(=O)[C@H](Cc2ccc(C(F)(F)F)cc2)N2CCCC[C@@H](C2=O)N(C)C(=O)CN(C)C1=O [PP0868]	0.053	C (A compound having a KD ratio of 0.1 or more and less than 3 is denoted as C)	B (a compound having 3 or more and less than 10 is denoted as B)
CC[C@H](C)[C@@H]1NC(=O)[C@H](CC(C)C)N(C)C(=O)C[C@@H](C(=O)N2CCOCC2)N(C)C(=O)[C@H](C2CCCC2)N(C)C(=O)C2(CCC2)NC(=O)[C@@H]2[C@@H](O)CCN2C(=O)[C@H](CCc2cc(F)c(C(F)(F)F)c(F)c2)NC(=O)CN(C)C(=O)[C@H](Cc2ccc(C(F)(F)F)cc2)N2CCCC[C@@H](C2=O)N(C)C(=O)CN(C)C1=O [PP0869]	0.056	B (a compound having 3 or more and less than 10 is denoted as B)	B (a compound having 3 or more and less than 10 is denoted as B)
CC[C@H](C)[C@@H]1NC(=O)[C@H](CC(C)C)N(C)C(=O)C[C@@H](C(=O)N2CCOCC2)N(C)C(=O)[C@H](C2CCCC2)N(C)C(=O)C2(CCC2)NC(=O)[C@@H]2[C@H](O)CCN2C(=O)[C@H](CCc2cc(F)c(C(F)(F)F)c(F)c2)NC(=O)CN(C)C(=O)[C@H](Cc2ccc(C(F)(F)F)cc2)N2CCCC[C@@H](C2=O)N(C)C(=O)CN(C)C1=O [PP0870]	0.057	B (a compound having 3 or more and less than 10 is denoted as B)	B (a compound having 3 or more and less than 10 is denoted as B)
C=CC[C@H]1C(=O)N[C@@H]([C@@H](C)CC)C(=O)N(C)CC(=O)N(C)[C@H]2CCCCN(C2=O)[C@@H](Cc2ccc(C(F)(F)F)cc2)C(=O)N(C)CC(=O)N[C@@H](CCc2cc(F)c(C(F)(F)F)c(F)c2)C(=O)N2C[C@H](OCC)C[C@H]2C(=O)N[C@](C)(CC=C)C(=O)N(C)[C@@H](C2CCCC2)C(=O)N(C)[C@H](C(=O)N2CCOCC2)CC(=O)N1C [PP0874]	0.1	C (A compound having a KD ratio of 0.1 or more and less than 3 is denoted as C)	B (a compound having 3 or more and less than 10 is denoted as B)
